This is an account of results in patent US8092785B2, “Process for milling poorly soluble drugs in presence of liquid propellants” (Glaxo Group Limited, priority 2004, dated 2012).

Structures are written as SMILES.

On the set-up of data set [1]: key: Those in class II have low solubility and high permeability; those in class IV have low solubility and low permeability. Conditions: classified according to solubility and permeability (Amidon et al); cited from earlier work.
Data set [2] is described as follows: Particle size of milled product (SEM analysis / particle sizing). It counts as physicochemical. The procedure: Drug substance prepared according to the present invention maybe characterised by a series of physical analytical techniques well known to those skilled in the art for analysing physical form, for instance XPRD, polarised light microscopy (PLM), thermal analysis, FT-IR and laser diffraction particle sizing. 500 mg of drug or drug:polymer blend (PVP K30, PVP/VA 64 (BASF) and PVP/VA 37 (BASF)) (1:2 w/w) was ball milled in a mixer mill (MM2 Mixer mill, Glen Creston Ltd). The sample was milled at 17.5 1/sec in a 25 ml chamber for 120 minutes at 2% w/v with 2×12 mm diameter and 6×7 mm diameter stainless steel ball bearings. 500 mg of drug or drug:polymer blend (PVP K30) (1:2 w/w) was placed in a 25 ml milling chamber (2% w/v). Grinding media of 2×5 mm, 2×7 mm, 2×9 mm and 2×12 mm ball bearings were added. 10 g of 134a (Du Pont) was then added into the milling chamber via a valve. The sample was then milled for 2×20 minute periods at a frequency of 25 1/sec using a Retsch MM200 Mixer mill.

The nature of data set [3]: Physical form of milled, co-milled or spray dried product by XRPD. It counts as physicochemical. The procedure: Drug substance prepared according to the present invention maybe characterised by a series of physical analytical techniques well known to those skilled in the art for analysing physical form, for instance XPRD, polarised light microscopy (PLM), thermal analysis, FT-IR and laser diffraction particle sizing.
500 mg of drug or drug:polymer blend (PVP K30, PVP/VA 64 (BASF) and PVP/VA 37 (BASF)) (1:2 w/w) was ball milled in a mixer mill (MM2 Mixer mill, Glen Creston Ltd). The sample was milled at 17.5 1/sec in a 25 ml chamber for 120 minutes at 2% w/v with 2×12 mm diameter and 6×7 mm diameter stainless steel ball bearings.
500 mg of drug or drug:polymer blend (PVP K30) (1:2 w/w) was placed in a 25 ml milling chamber (2% w/v). Grinding media of 2×5 mm, 2×7 mm, 2×9 mm and 2×12 mm ball bearings were added. 10 g of 134a (Du Pont) was then added into the milling chamber via a valve. The sample was then milled for 2×20 minute periods at a frequency of 25 1/sec using a Retsch MM200 Mixer mill.
XPRD patterns of resultant products are shown as FIG. 1.1 to 1.4.
500 mg of drug and 1 g of polymer (1:2 w/w) was placed in a 25 ml measuring chamber. Grinding media of 2 mm Yttrium-Zirconium beads (equivalent volume 5 ml) were added. 12 ml of propellant 134a was then added into the milling chamber via a valve. The sample was then milled for 30 minutes at a frequency of 25 1/sec using a Retsch MM200 Mixer mill.
Drug (2 g) and polymer (3 g) were dissolved in approximately 200 ml of dimethyl formamide and spray dried at approximately 2 ml/min using a lab scale spray drier (Buchi B191, outlet temperature about 95° C.). The spray dried powders were then further dried at 65° C. under vacuum for 48 hrs. The dispersions were amorphous by XRPD.
Thus, the co-milling process has not compromised the physical form of compound A.

Data set [4] is described as follows: Dissolution testing of ball milled and 134a ball milled products (USP II apparatus, sink conditions). It counts as physicochemical. Conditions: neat drug ball milled in 134a, 37.5° C., 50 RPM. The procedure:
The dissolution profiles of study compounds prepared by ball milling and 134a ball milling were measured according to the following method:
Dissolution testing was carried out under sink conditions using a VanKel USP II dissolution apparatus (fluid pump Model 17-2300, water bath VK750D, water bath stirrer VK7010). Dissolution testing was carried out at 37.5° C.+/−0.5° C. (Digitron Type K thermocouple thermometer). Vessels were stirred at 50 RPM. Samples underwent online UV analysis (Hewlett Packard 8453) at time points 0, 2, 5, 10, 15, 20, 30, 45 and 60 minutes. Samples were filtered with a 10 μm filters (Anachem). The pH 6.8 0.1M phosphate buffer^1 was degassed prior to commencement of the dissolution run (Copley Dissofill, model DSF2). Standard curves were prepared by dissolving drug in acetonitrile:water (1:1) for carbamazepine and glibenclamide or acetonitrile:pH 6.8 buffer (1:1) for dipyridamole and indomethacin. Drug concentration, UV cell path length, dissolution media and wavelength of detection were all compound specific. All analysis was carried out in triplicate. ^1 pH 6.8 buffer: 20 l prepared by addition of 10 l of Na2HPO4.2H2O 17.8 g/l to 10 l of NaH2PO4.H2O 13.8 g/l. pH was confirmed using a pH meter.

The mark [5] stands for this setting: ball milling with 134a, compared to conventionally milled product.
Setting [6] is: ball milling with propellant 134a, 2×20 minute.
[7] abbreviates: conventional ball milling, 120 minutes, no propellant.

As to `NC(=O)N1c2ccccc2C=Cc2ccccc21` [carbamazepine, Carbamazepine], in data set [1], the “Biopharmaceutics Classification system class” value is recorded as “II”. Besides, the particle size result in data set [2] (setting [5]) is “significant decrease in particle size”; in data set [2] (conventional ball milling) it was “no significant decrease in particle size”. Further, the “physical form of product” value is on record as “complete conversion to a crystalline form, form III” in data set [3] (setting [6]) and “conversion to a crystalline form, form III” in data set [3] (setting [7]).
`OCCN(CCO)c1nc(N2CCCCC2)c2nc(N(CCO)CCO)nc(N3CCCCC3)c2n1` [dipyridamole]: in data set [4], the dissolution rate result is “improved in dissolution rate”. In data set [1], the “Biopharmaceutics Classification system class” value was “II”. In addition, the “physical form of product” value in data set [3] (setting [6]) is given as “dipyridamole form II”; in data set [3] (setting [7]) it was “predominantly amorphous product”.
With `COc1ccc(Cl)cc1C(=O)NCCc1ccc(S(=O)(=O)NC(=O)NC2CCCCC2)cc1` [glibenclamide], the “Biopharmaceutics Classification system class” value in data set [1] is on record as “II”. Also, the particle size result in data set [2] (setting [5]) is given as “significant decrease in particle size”. Further, the “physical form of product” value in data set [3] (setting [6]) is recorded as “remained in the same crystalline form as the starting material”; in data set [3] (setting [7]), “amorphous product”.
`COc1ccc2c(c1)c(CC(=O)O)c(C)n2C(=O)c1ccc(Cl)cc1` [indomethacin]: the “Biopharmaceutics Classification system class” value in data set [1] is on record as “II”. Besides, the particle size result in data set [2] (setting [5]) is “significant decrease in particle size”. Besides, the “physical form of product” value in data set [3] (setting [6]) was “γ form”; in data set [3] (setting [7]), “predominantly amorphous product”.
